# Test results as given in patent US20060264460A1 (Wyeth, priority 2005, published 2006).
# Biological target: T1, human Cot/Tpl2 kinase (Homo sapiens, UniProt P41279)
# T1 construct: human Cot/Tpl2 kinase construct encoding residues 30-398; 6His (N); made in house; host or cells: Sf9 insect cells, baculovirus system (BD Biosciences)
# Test: Tpl2/Cot kinase assay: GST-MEK1 phosphorylation detected by ELISA (DELFIA Eu)
# Assay type: biochemical
# Conditions: 0.4 nM Tpl2, 35 nM GST-MEK1, 50 uM ATP, 1 h at 30° C.
# Experimental: Sf9 cells expressing the kinase were lysed in 50 mM NaPhosphate pH=8; 300 mM NaCl; 5 mM imidazole; 0.1 mM EGTA; 25 mM beta-glycerophosphate; 1% TX-100, 1% glycerol; 6 mM beta-mercaptoethanol and protease inhibitors. The lysate was clarified by centrifugation and was loaded onto a Ni-Sepharose column. The column was washed with 50 mM NaPhosphate pH=8; 300 mM NaCl; 15 mM imidazole; 1% glycerol; and 6 mM beta-mercaptoethanol. His-Tpl2 was eluted with 50 mM NaPhosphate pH=8; 300 mM NaCl; 250 mM imidazole; 1% glycerol; and 6 mM beta-mercaptoethanol. The eluted protein was further purified by size exclusion chromatography. Fractions corresponding to monomeric Tpl2 were then used in the assay.
# Tpl2/Cot activity was directly assayed using GST-MEK1 as a substrate. GST-MEK1 phosphorylation on serine residues 217 and 221 was detected by ELISA. 0.4 nM Tpl2 was incubated with 35 nM GST-MEK1 in a kinase reaction buffer containing 20 mM MOPS pH=7.2; 50 uM ATP; 20 mM MgCl2; 1 mM DTT; 25 mM β-glycerophosphate; 5 mM EGTA; and 1 mM sodium orthovanadate for 1 h at 30° C. The compounds of the inventions solubilized in 100% DMSO were pre-diluted in assay buffer so that the final concentration of DMSO in the reaction was 1%. The kinase reaction was carried out in 100 ul volume on 96 well plates. The kinase reaction was then stopped with the addition of 100 mM EDTA. […] After a 1 hour incubation at room temperature, the detection plate was washed 4 times with TBST (TBS+0.05% Tween 20) and then incubated for another hour at room temperature with anti phospho-MEK1 antibody (Cell Signaling) 1:1000 in 10 mM MOPS 7.5; 150 mM NaCl; 0.05% Tween 20; 0.1% Gelatin; 0.02% NaN3; and 1% BSA. The detection plate was washed again and incubated for 30 min with DELFIA Europium (Eu) labeled goat anti-rabbit IgG (Perkin-Elmer), 1:4000 in the same buffer used for the primary incubation. After a final wash, Eu detection solution was added to each well and the Eu signal was measured in a Wallac Victor^2 Multilabel Counter. IC50 calculations were performed using the XLfit software package (IDBS, Guildford, UK).
# T1 sequence (P41279 30-398): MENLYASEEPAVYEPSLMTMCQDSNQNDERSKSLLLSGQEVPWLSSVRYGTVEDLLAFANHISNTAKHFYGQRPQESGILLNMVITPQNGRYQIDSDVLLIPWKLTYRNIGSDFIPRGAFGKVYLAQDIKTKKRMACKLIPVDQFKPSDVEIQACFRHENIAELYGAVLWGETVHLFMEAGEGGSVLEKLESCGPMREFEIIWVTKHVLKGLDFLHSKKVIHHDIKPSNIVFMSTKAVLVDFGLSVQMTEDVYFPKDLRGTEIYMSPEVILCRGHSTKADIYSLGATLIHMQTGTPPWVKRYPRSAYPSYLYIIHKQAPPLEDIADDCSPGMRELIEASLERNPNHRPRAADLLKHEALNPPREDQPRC
row,Molecule,IC50 [nM]
1,1-[(3-chloro-4-fluorophenyl)amino]-5-[(1E)-3-hydroxyprop-1-en-1-yl]-7-[(1H-imidazol-5-ylmethyl)amino]-2-naphthonitrile [Example 313],230
2,4-(3-Chloro-4-fluoro-phenylamino)-6-[(tetrahydro-furan-2-ylmethyl)-amino]-quinoline-3-carbonitrile [Example 41],2200
3,"N#Cc1cnc2ccc(NC(=O)c3ccccc3)cc2c1Nc1ccc(F)c(Cl)c1 [Example 1, N-[4-(3-Chloro-4-fluoro-phenylamino)-3-cyano-quinolin-6-yl]-benzamide]",11000
4,"N#Cc1cnc2ccc(NC(=O)c3cccnc3)cc2c1Nc1ccc(F)c(Cl)c1 [Example 2, N-[4-(3-Chloro-4-fluoro-phenylamino)-3-cyano-quinolin-6-yl]-nicotinamide]",23900
5,"N#Cc1cnc2ccc(NCc3ccco3)cc2c1Nc1ccc(F)c(Cl)c1 [Example 3, 4-(3-Chloro-4-fluoro-phenylamino)-6-[(furan-2-ylmethyl)-amino]-quinoline-3-carbonitrile]",240
6,"N#Cc1cnc2ccc(NCc3ccoc3)cc2c1Nc1ccc(F)c(Cl)c1 [Example 5, 4-(3-Chloro-4-fluoro-phenylamino)-6-[(furan-3-ylmethyl)-amino]-quinoline-3-carbonitrile]",370
7,"N#Cc1cnc2ccc(NCc3cccc([N+](=O)[O-])c3)cc2c1Nc1ccc(F)c(Cl)c1 [Example 6, 4-(3-Chloro-4-fluoro-phenylamino)-6-(3-nitro-benzylamino)-quinoline-3-carbonitrile]",200
8,"Cn1c(CNc2ccc3ncc(C#N)c(Nc4ccc(F)c(Cl)c4)c3c2)nc2ccccc21 [Example 7, 4-(3-Chloro-4-fluoro-phenylamino)-6-[(1-methyl-1H-benzoimidazol-2-ylmethyl)-amino]-quinoline-3-carbonitrile]",18
9,"N#Cc1cnc2ccc(NCc3nccs3)cc2c1Nc1ccc(F)c(Cl)c1 [Example 8, 4-(3-Chloro-4-fluoro-phenylamino)-6-[(thiazol-2-ylmethyl)-amino]-quinoline-3-carbonitrile]",31
10,"N#Cc1cnc2ccc(NCc3ccc(CO)o3)cc2c1Nc1ccc(F)c(Cl)c1 [Example 9, 4-(3-Chloro-4-fluoro-phenylamino)-6-[(5-hydroxymethyl-furan-2-ylmethyl)-amino]-quinoline-3-carbonitrile]",211
11,"N#Cc1cccc(CNc2ccc3ncc(C#N)c(Nc4ccc(F)c(Cl)c4)c3c2)c1 [Example 10, 4-(3-Chloro-4-fluoro-phenylamino)-6-(3-cyano-benzylamino)-quinoline-3-carbonitrile]",200
12,"N#Cc1cnc2ccc(NCc3ccc([N+](=O)[O-])o3)cc2c1Nc1ccc(F)c(Cl)c1 [Example 11, 4-(3-Chloro-4-fluoro-phenylamino)-6-[(5-nitro-furan-2-ylmethyl)-amino]-quinoline-3-carbonitrile]",123
13,"N#Cc1cnc2ccc(NCc3ccc(-n4ccnc4)cc3)cc2c1Nc1ccc(F)c(Cl)c1 [Example 12, 4-(3-Chloro-4-fluoro-phenylamino)-6-(4-imidazol-1-yl-benzylamino)-quinoline-3-carbonitrile]",1300
14,"N#Cc1cnc2ccc(NCc3ncc[nH]3)cc2c1Nc1ccc(F)c(Cl)c1 [Example 13, 4-(3-Chloro-4-fluoro-phenylamino)-6-[(1H-imidazol-2-ylmethyl)-amino]-quinoline-3-carbonitrile]",30
15,"N#Cc1cnc2ccc(NCc3cccc(N)c3)cc2c1Nc1ccc(F)c(Cl)c1 [Example 14, 6-(3-Amino-benzylamino)-4-(3-chloro-4-fluoro-phenylamino)-quinoline-3-carbonitrile]",140
16,"Cc1[nH]cnc1CNc1ccc2ncc(C#N)c(Nc3ccc(F)c(Cl)c3)c2c1 [Example 15, 4-(3-Chloro-4-fluoro-phenylamino)-6-[(5-methyl-3H-imidazol-4-ylmethyl)-amino]-quinoline-3-carbonitrile]",15
17,"CC(=O)Nc1ccc(CNc2ccc3ncc(C#N)c(Nc4ccc(F)c(Cl)c4)c3c2)cc1 [Example 16, N-(4-{[4-(3-Chloro-4-fluoro-phenylamino)-3-cyano-quinolin-6-ylamino]-methyl}-phenyl)-acetamide]",227
18,"N#Cc1cnc2ccc(NCc3ccc([N+](=O)[O-])cc3)cc2c1Nc1ccc(F)c(Cl)c1 [Example 17, 4-(3-Chloro-4-fluoro-phenylamino)-6-(4-nitro-benzylamino)-quinoline-3-carbonitrile]",190

# Other lines, results leading:
row,IC50 [nM],Molecule
1,280,"CS(=O)(=O)Nc1cccc(CNc2ccc3ncc(C#N)c(Nc4ccc(F)c(Cl)c4)c3c2)c1 [Example 18, N-(3-{[4-(3-Chloro-4-fluoro-phenylamino)-3-cyano-quinolin-6-ylamino]-methyl}-phenyl)-methanesulfonamide]"
2,590,"N#Cc1ccc(CNc2ccc3ncc(C#N)c(Nc4ccc(F)c(Cl)c4)c3c2)cc1 [Example 19, 4-(3-Chloro-4-fluoro-phenylamino)-6-(4-cyano-benzylamino)-quinoline-3-carbonitrile]"
3,610,"CN(C)c1ccc(CNc2ccc3ncc(C#N)c(Nc4ccc(F)c(Cl)c4)c3c2)c(F)c1C#N [Example 20, 4-(3-Chloro-4-fluoro-phenylamino)-6-(3-cyano-4-dimethylamino-2-fluoro-benzylamino)-quinoline-3-carbonitrile]"
4,130,"N#Cc1ccccc1CNc1ccc2ncc(C#N)c(Nc3ccc(F)c(Cl)c3)c2c1 [Example 21, 4-(3-Chloro-4-fluoro-phenylamino)-6-(2-cyano-benzylamino)-quinoline-3-carbonitrile]"
5,68,"N#Cc1cnc2ccc(NCc3nccn3CCN3CCOCC3)cc2c1Nc1ccc(F)c(Cl)c1 [Example 22, 4-(3-Chloro-4-fluoro-phenylamino)-6-{[1-(2-morpholin-4-yl-ethyl)-1H-imidazol-2-ylmethyl]-amino}-quinoline-3-carbonitrile]"
6,640,"CCc1nc(C)c(CNc2ccc3ncc(C#N)c(Nc4ccc(F)c(Cl)c4)c3c2)[nH]1 [Example 23, 4-(3-Chloro-4-fluoro-phenylamino)-6-[(2-ethyl-5-methyl-3H-imidazol-4-ylmethyl)-amino]-quinoline-3-carbonitrile]"
7,380,"COCCOc1ccc(CNc2ccc3ncc(C#N)c(Nc4ccc(F)c(Cl)c4)c3c2)cc1Br [Example 24, 6-[3-Bromo-4-(2-methoxy-ethoxy)-benzylamino]-4-(3-chloro-4-fluoro-phenylamino)-quinoline-3-carbonitrile]"
8,82,"COCCOc1ccc(CNc2ccc3ncc(C#N)c(Nc4ccc(F)c(Cl)c4)c3c2)cc1C#N [Example 25, 4-(3-Chloro-4-fluoro-phenylamino)-6-[3-cyano-4-(2-methoxy-ethoxy)-benzylamino]-quinoline-3-carbonitrile]"
9,> 40000,"CC(C)(C)OC(=O)COc1ccc(CNc2ccc3ncc(C#N)c(Nc4ccc(F)c(Cl)c4)c3c2)cc1Br [Example 26, (2-Bromo-4-{[4-(3-chloro-4-fluoro-phenylamino)-3-cyano-quinolin-6-ylamino]-methyl}-phenoxy)-acetic acid tert-butyl ester]"
10,74,"N#Cc1cnc2ccc(NCc3cc[nH]n3)cc2c1Nc1ccc(F)c(Cl)c1 [Example 27, 4-(3-Chloro-4-fluoro-phenylamino)-6-[(1H-pyrazol-3-ylmethyl)-amino]-quinoline-3-carbonitrile]"
